Source: ChEMBL document CHEMBL1201862, “PubChem BioAssay data set” (2004)
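Following 48 hours of exposure in 96-well plates, responses at five concentrations were used to interpolate endpoints linearly. GI50: concentration for 50% inhibition of growth.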 Activity calls are given as the source filed them. No stated cut-off is given here; in the data, active = GI50 up to about 1.1 µM and inactive = higher.

How the values were obtained:
Test in all cases: growth of human tumour cells (NCI), 48 h
A549 = test system: A549
BT-549 = test system: BT-549
CCRF-CEM = test system: CCRF-CEM
DU-145 = test system: DU-145
HCT-116 = test system: HCT-116
HOP-62 = test system: HOP-62
Hs-578T = test system: Hs-578T
IGROV-1 = test system: IGROV-1
KM12 = test system: KM12
MCF7 = test system: MCF7
MDA-MB-231 = test system: MDA-MB-231
Malme-3M = test system: Malme-3M
NCI-H460 = test system: NCI-H460
NCI-H522 = test system: NCI-H522
OVCAR-3 = test system: OVCAR-3
OVCAR-5 = test system: OVCAR-5
RPMI-8226 = test system: RPMI-8226
SK-MEL-2 = test system: SK-MEL-2
SNB-75 = test system: SNB-75
TK-10 = test system: TK-10

| SMILES | GI50 (A549) | GI50 (BT-549) | GI50 (CCRF-CEM) | GI50 (DU-145) | GI50 (HCT-116) | GI50 (HOP-62) | GI50 (Hs-578T) | GI50 (IGROV-1) | GI50 (KM12) | GI50 (MCF7) | GI50 (MDA-MB-231) | GI50 (Malme-3M) | GI50 (NCI-H460) | GI50 (NCI-H522) | GI50 (OVCAR-3) | GI50 (OVCAR-5) | GI50 (RPMI-8226) | GI50 (SK-MEL-2) | GI50 (SNB-75) | GI50 (TK-10) |
| --- | --- | --- | --- | --- | --- | --- | --- | --- | --- | --- | --- | --- | --- | --- | --- | --- | --- | --- | --- | --- |
| CN(CCCNC(=O)c1c2ccc3ccccc3c2nn1C)CCCNC(=O)c1c2ccc3ccccc3c2nn1C | 12.4 µM (inactive) | 10.6 µM (inactive) | 8.18 µM (inactive) | 17.5 µM (inactive) | 4.76 µM (inactive) | 14.8 µM (inactive) | 14.2 µM (inactive) | 8.79 µM (inactive) | 8.13 µM (inactive) | 3.94 µM (inactive) | 10.5 µM (inactive) | 3.03 µM (inactive) | 4.52 µM (inactive) | 7.35 µM (inactive) | 16 µM (inactive) | 11.5 µM (inactive) | 1.95 µM (inactive) | 5.04 µM (inactive) | 8.2 µM (inactive) | 2.67 µM (inactive) |
| CC1(C)OC[C@@]2([C@@H]3CC[C@@H](C3)C2(C)C)N1O | > 100 µM (inactive) | > 100 µM (inactive) | > 100 µM (inactive) | > 100 µM (inactive) | > 100 µM (inactive) | > 100 µM (inactive) | > 100 µM (inactive) | > 100 µM (inactive) | > 100 µM (inactive) | > 100 µM (inactive) | > 100 µM (inactive) | 28.8 µM (inactive) | > 100 µM (inactive) | 62.1 µM (inactive) | > 100 µM (inactive) | > 100 µM (inactive) | 79.4 µM (inactive) | > 100 µM (inactive) | > 100 µM (inactive) | > 100 µM (inactive) |
| CNc1ccc(OC)cc1S(=O)(=O)c1ccccc1[N+](=O)[O-] | 98.2 µM (inactive) | 75.2 µM (inactive) | 26.7 µM (inactive) | > 100 µM (inactive) | > 100 µM (inactive) | > 100 µM (inactive) | > 100 µM (inactive) | > 100 µM (inactive) | – | > 100 µM (inactive) | > 100 µM (inactive) | 82.8 µM (inactive) | > 100 µM (inactive) | 92.3 µM (inactive) | > 100 µM (inactive) | > 100 µM (inactive) | > 100 µM (inactive) | > 100 µM (inactive) | > 100 µM (inactive) | > 100 µM (inactive) |
| Cc1ccc2c(ccc3c[n+]4ccccc4c(C)c32)c1.[O-][Cl+3]([O-])([O-])[O-] | 0.373 µM (active) | 1.15 µM (inactive) | 6.64 µM (inactive) | 1.13 µM (inactive) | 4.59 µM (inactive) | 2.44 µM (inactive) | 3.05 µM (inactive) | 8.04 µM (inactive) | 0.39 µM (active) | 2.89 µM (inactive) | 6.61 µM (inactive) | 1.32 µM (inactive) | > 100 µM (inactive) | 1.59 µM (inactive) | 1.12 µM (active) | 10.5 µM (inactive) | 4.15 µM (inactive) | 1.39 µM (inactive) | – | 23.4 µM (inactive) |
| COc1cc2c(cc1OCCCCCCCCCCN1C(=O)c3cccc4cccc(c34)C1=O)N=C[C@@H]1CCCN1C2=O | 12.4 µM (inactive) | 6.25 µM (inactive) | 1.94 µM (inactive) | 13.2 µM (inactive) | 5.52 µM (inactive) | 14.3 µM (inactive) | 6.89 µM (inactive) | 1.59 µM (inactive) | 16.1 µM (inactive) | 2.01 µM (inactive) | 3.62 µM (inactive) | 12 µM (inactive) | 19.9 µM (inactive) | 6.67 µM (inactive) | 3.73 µM (inactive) | 25.8 µM (inactive) | 1.82 µM (inactive) | 3.74 µM (inactive) | 4.58 µM (inactive) | 13.5 µM (inactive) |
| CC(=O)SC(C[N+](=O)[O-])c1ccc2c(c1)OCO2 (configuration not stated) | 14.2 µM (inactive) | 6.17 µM (inactive) | 4.8 µM (inactive) | 11 µM (inactive) | 2.31 µM (inactive) | 17.4 µM (inactive) | 12.9 µM (inactive) | 5.2 µM (inactive) | 4.75 µM (inactive) | 3 µM (inactive) | 7.45 µM (inactive) | 8.11 µM (inactive) | 11.2 µM (inactive) | 5.22 µM (inactive) | 8.24 µM (inactive) | 7.83 µM (inactive) | 1.39 µM (inactive) | 6.19 µM (inactive) | 9.59 µM (inactive) | 14.4 µM (inactive) |
| CC1=NN(C(=O)CC(=O)Nc2ccccc2Cl)C(=O)C1/N=N/c1ccc(C(=O)O)cc1 (configuration not stated) | > 100 µM (inactive) | > 100 µM (inactive) | > 100 µM (inactive) | > 100 µM (inactive) | > 100 µM (inactive) | > 100 µM (inactive) | > 100 µM (inactive) | > 100 µM (inactive) | > 100 µM (inactive) | > 100 µM (inactive) | > 100 µM (inactive) | > 100 µM (inactive) | > 100 µM (inactive) | > 100 µM (inactive) | > 100 µM (inactive) | > 100 µM (inactive) | > 100 µM (inactive) | > 100 µM (inactive) | – | > 100 µM (inactive) |
